Assay results published in patent publication US10195196B2, “1,4-disubstituted pyridazine analogs there of and methods for treating SMN-deficiency-related conditions” (NOVARTIS AG, priority 2012, dated 2019).

Tested on: SMN protein
Test: cellular SMN ELISA (SMN protein elevation)
Format: cell-based
Conditions: myoblast cell line from SMNdelta7 mouse model, 24 hours treatment; for SMN activity Fold: fold activation over DMSO control
Outline: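 Readout is fold SMN elevation versus DMSO plus EC50, measured by anti-SMN capture ELISA with 450 nm absorbance. Lysates came from a myoblast line of the SMNdelta7 mouse model after 24 h compound exposure, with dose ranges of 20 nM–10 μM (condition 1) or 100 pM–10 μM (condition 2).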

[1] = ELISA condition 2: compound concentration 100 pM-10 uM
[2] = ELISA condition 1: compound concentration range 20 nM-10 uM

Row | SMILES | EC50 [1] [nM] | SMN activity Fold [1] [Fold] | EC50 [2] [nM] | SMN activity Fold [2] [Fold]
1 | CN(c1ccc(-c2cc3c(cc2O)/C(=N/O)CC3)nn1)C1CC(C)(C)NC(C)(C)C1 [Example 35-3, 6-hydroxy-5-(6-(methyl(2,2,6,6-tetramethylpiperidin-4-yl)amino)pyridazin-3-yl)-2,3-dihydro-1H-inden-1-one oxime] | 11 | 2.62 | – | –
2 | Cn1ccc(-c2ccc(O)c(-c3ccc(OC4CC(C)(C)NC(C)(C)C4)nn3)c2)cc1=O [Example 32-8, 4-(4-hydroxy-3-(6-((2,2,6,6-tetramethylpiperidin-4-yl)oxy)pyridazin-3-yl)phenyl)-1-methylpyridin-2(1H)-one] | 433 | 2.61 | – | –
3 | CN(c1ccc(-c2cc3ccc(OC(C)(C)CCO)cc3cc2O)nn1)C1CC(C)(C)NC(C)(C)C1 [Example 24-11, 7-((4-hydroxy-2-methylbutan-2-yl)oxy)-3-(6-(methyl(2,2,6,6-tetramethylpiperidin-4-yl)amino)pyridazin-3-yl)naphthalen-2-ol] | 133 | 2.54 | – | –
4 | CN(c1ccc(-c2ccc(-c3ncc[nH]3)cc2O)nn1)C1CC(C)(C)NC(C)(C)C1 [Example 42-1, 5-(1H-imidazol-2-yl)-2-(6-(methyl(2,2,6,6-tetramethylpiperidin-4-yl)amino)pyridazin-3-yl)phenol] | 117 | 2.28 | – | –
5 | CN(c1ccc(-c2c(O)cc(-c3cn[nH]c3)cc2OC(F)(F)F)nn1)C1CC(C)(C)NC(C)(C)C1 [Example 25-5, 2-(6-(methyl(2,2,6,6-tetramethylpiperidin-4-yl)amino)pyridazin-3-yl)-5-(1H-pyrazol-4-yl)-3-(trifluoromethoxy)phenol] | 96 | 2.36 | – | –
6 | Cn1ccc(-c2ccc(-c3ccc(N4CCC5(CCCNC5)C4)nn3)c(O)c2)cc1=O (centres unmarked) [Example 43-7, 4-(4-(6-(2,7-diazaspiro[4.5]decan-2-yl)pyridazin-3-yl)-3-hydroxyphenyl)-1-methylpyridin-2(1H)-one] | 156 | 2.42 | – | –
7 | CN(C)C1CCCN(c2ccc(-c3ccc(-n4cccn4)cc3O)nn2)C1 (centres unmarked) [Example 18-13, 2-[6-(3-dimethyl-amino-piperidin-1-yl)-pyridazin-3-yl]-5-pyrazol-1-yl-phenol] | 1240 | 2.28 | – | –
8 | Oc1cc2ccccc2cc1-c1ccc(C2=CCNCC2)nn1 [Example 19-3, 3-(6-(1,2,3,6-tetra-hydropyridin-4-yl)pyridazin-3-yl)naphthalen-2-ol] | 155 | 2.19 | – | –
9 | CN(c1ccc(-c2cc3ccc(O)c(Cl)c3cc2O)nn1)C1CC(C)(C)NC(C)(C)C1 [Example 24-5, 1-chloro-6-(6-(methyl(2,2,6,6-tetramethylpiperidin-4-yl)amino)pyridazin-3-yl)naphthalene-2,7-diol] | 47 | 2.99 | – | –
10 | CN(c1ccc(-c2cc(C#N)ccc2O)nn1)C1CC(C)(C)NC(C)(C)C1 [Example 3-5, 4-hydroxy-3-(6-(methyl(2,2,6,6-tetramethylpiperidin-4-yl)amino)pyridazin-3-yl)benzonitrile] | – | – | 100 | 2.38
11 | Oc1cc(-n2cccn2)ccc1-c1ccc(C2CCNCC2)nn1 [Example 19-2, 2-(6-piperidin-4-yl-pyridazin-3-yl)-5-pyrazol-1-yl-phenol] | 402 | 2.73 | – | –
12 | CN(c1ccc(-c2c(O)cc(-c3cnn(C)c3)cc2OC(F)(F)F)nn1)C1CC(C)(C)NC(C)(C)C1 [Example 25-4, 2-(6-(methyl(2,2,6,6-tetramethylpiperidin-4-yl)amino)pyridazin-3-yl)-5-(1-methyl-1H-pyrazol-4-yl)-3-(trifluoromethoxy)phenol] | 199 | 2.30 | – | –
13 | Oc1cc(-n2cccn2)ccc1-c1ccc(OCC2CCNC2)nn1 (single isomer, unassigned) [Example 17-9, 5-(1H-pyrazol-1-yl)-2-(6-(pyrrolidin-3-ylmethoxy)pyridazin-3-yl)phenol] | 1670 | 2.63 | – | –
